Measurements from patent US7384758B2, “Bioluminescent protease assay with modified aminoluciferin or derivatives thereof” (Promeaga Corporation, priority 2002, dated 2008).

What was measured:
[1] = tested on: thermostable firefly luciferase; assay: luminescent reaction with luciferin or aminoluciferin as luciferase substrate (FIG. 1); assay type: biochemical
Text: FIG. 1 depicts relative light units (RLU) for luciferin or aminoluciferin as a substrate for a thermostable firefly luciferase in a luminescent reaction.

caspase 3 = target: T1, caspase 3 (Homo sapiens, UniProt P42574); assay: caspase titration in CHAPS or Thesit buffer formulations (Example 5); assay type: biochemical; conditions: buffer containing either CHAPS or Thesit, FIG. 12
T1 construct: approximately 10 mU/ng protein with >75% in active conformation; purchased Upstate Biotech 14-264
T1 sequence (P42574 29-175 limits assumed): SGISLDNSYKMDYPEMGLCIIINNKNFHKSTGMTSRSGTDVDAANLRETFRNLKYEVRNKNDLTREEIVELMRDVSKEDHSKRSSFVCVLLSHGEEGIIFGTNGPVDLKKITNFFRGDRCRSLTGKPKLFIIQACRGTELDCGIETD
T1 sequence (P42574 176-277 limits assumed): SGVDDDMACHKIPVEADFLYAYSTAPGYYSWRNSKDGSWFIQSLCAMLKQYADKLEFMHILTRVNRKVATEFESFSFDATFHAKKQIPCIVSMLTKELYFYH
Protocol: To evaluate different assay component formulations for caspase-3 activity and to compare sensitivities of DEVD-aminoluciferin to DEVD-Rho-110 in those formulations, two stock solutions were prepared. As above, the DEVD-aminoluciferin/luciferase mixture is prepared and allowed to incubate overnight. One stock solution included a 1% solution of CHAPS buffer (Sigma, Catalog No. C-5070) and the other a 1% solution of Thesit (Pragmatics, Inc., Catalog No. S-22#9). The buffer formulations were as follows: 100 μl of HEPES (1 M stock, 50 mM final concentration), 10 μl of CaCl2 (1 M stock, 5 mM final concentration), 30 μl of MgSO4 (1 M stock, 15 mM final concentration), 8 μl of ATP (0.1 M stock, 400 μM final concentration), 8 μl of DEVD-aminoluciferin (10 mM stock, 40 μM final concentration), 38.4 μl of luciferase (5.2 mg/ml stock, 100 μg/ml final concentration) and 20 μl of prionex (10% stock, 0.1% final concentration) were combined in each of 2 tubes. Finally, 200 μl of either CHAPS or Thesit (1% stock, 0.1% final concentration) was added to one of the tubes. This was incubated overnight. […]
To one plate, 50 μl of DEVD-aminoluciferin/luciferase was added to each of the 6 wells containing each dilution (both CHAPS and Thesit treated). […] The plates were read at various times on a luminometer (Dynex) or a fluorimeter (Fluoroskan).

Nc1ccc2nc(C3=N[C@@H](C(=O)O)CS3)sc2c1 [aminoluciferin]
Km ([1]; substrate for thermostable firefly luciferase, FIG. 1): 2 µM
light output as luciferin ([1]; under saturating conditions, relative to luciferin): about 60%
limit of detection (caspase) (caspase 3): ~0.2 μU
